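Briefly, cells in 96-well plates were exposed to five compound concentrations for 48 h, and endpoints were estimated by linear interpolation. GI50 marks 50% less growth.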 Calls of active or inactive are those of the source. No stated cut-off is given here; in the data, active = GI50 up to about 1.1 µM and inactive = higher.
Experiments:
Assay in all cases: NCI tumour cell line growth inhibition, 48 h
HOP-62 = system: HOP-62
LXFL 529 = system: LXFL 529
LOX IMVI = system: LOX IMVI
SK-MEL-5 = system: SK-MEL-5
EKVX = system: EKVX
DMS-273 = system: DMS-273
SF-268 = system: SF-268
NCI-H23 = system: NCI-H23
TK-10 = system: TK-10
SR = system: SR
NCI-H522 = system: NCI-H522
ACHN = system: ACHN
MOLT-4 = system: MOLT-4
SNB-19 = system: SNB-19
HCT-116 = system: HCT-116
SNB-78 = system: SNB-78
HL-60 = system: HL-60
RXF 393 = system: RXF 393
HT-29 = system: HT-29
A498 = system: A498
NCI-H460 = system: NCI-H460
IGROV-1 = system: IGROV-1
KM12 = system: KM12
M14 = system: M14
HCT-15 = system: HCT-15
SF-295 = system: SF-295
UACC-62 = system: UACC-62
SK-MEL-28 = system: SK-MEL-28
OVCAR-3 = system: OVCAR-3
OVCAR-8 = system: OVCAR-8
CAKI-1 = system: CAKI-1
SK-MEL-2 = system: SK-MEL-2
DLD-1 = system: DLD-1
U-251 = system: U-251
HOP-18 = system: HOP-18
UACC-257 = system: UACC-257
A549 = system: A549
SN12C = system: SN12C
HCC 2998 = system: HCC 2998
COLO 205 = system: COLO 205
KM-20L2 = system: KM-20L2
UO-31 = system: UO-31
SF-539 = system: SF-539
786-0 = system: 786-0
SK-OV-3 = system: SK-OV-3
RPMI-8226 = system: RPMI-8226
Malme-3M = system: Malme-3M
CCRF-CEM = system: CCRF-CEM
OVCAR-4 = system: OVCAR-4
RXF 631 = system: RXF 631
SW-620 = system: SW-620
M19-MEL = system: M19-MEL
SNB-75 = system: SNB-75
OVCAR-5 = system: OVCAR-5
HOP-92 = system: HOP-92
K562 = system: K562
NCI-H226 = system: NCI-H226
DMS-114 = system: DMS-114

For `O=[N+]([O-])c1cc(I)cc(/C=N/NS(=O)(=O)c2ccc(Cl)cc2)c1O`, the GI50 (HOP-62) was 25.6 µM (inactive), the GI50 (LXFL 529) was 19.4 µM (inactive) and the GI50 (LOX IMVI) was 19.8 µM (inactive). The GI50 (SK-MEL-5) was 18 µM (inactive), the GI50 (EKVX) was 32.6 µM (inactive) and the GI50 (DMS-273) was 19.8 µM (inactive). For the same molecule, the GI50 (SF-268) was 36.9 µM (inactive), the GI50 (NCI-H23) was 16.3 µM (inactive) and the GI50 (TK-10) was 30.8 µM (inactive). For the same molecule, the GI50 (SR) was 21.4 µM (inactive), the GI50 (NCI-H522) was 16.9 µM (inactive) and the GI50 (ACHN) was 22.8 µM (inactive). For the same molecule, the GI50 (MOLT-4) was 19.5 µM (inactive), the GI50 (SNB-19) was 29.9 µM (inactive) and the GI50 (HCT-116) was 21.2 µM (inactive). For the same molecule, the GI50 (SNB-78) was 27.5 µM (inactive), the GI50 (HL-60) was 27.7 µM (inactive) and the GI50 (RXF 393) was 23.4 µM (inactive). For the same molecule, the GI50 (HT-29) was 16.3 µM (inactive), the GI50 (A498) was 22.9 µM (inactive) and the GI50 (NCI-H460) was 19.9 µM (inactive). The GI50 (IGROV-1) was 20.3 µM (inactive), the GI50 (KM12) was 18.2 µM (inactive) and the GI50 (M14) was 25.2 µM (inactive). For the same molecule, the GI50 (HCT-15) was 20.4 µM, the GI50 (SF-295) was 25.6 µM (inactive) and the GI50 (UACC-62) was 26.1 µM (inactive). For the same molecule, the GI50 (SK-MEL-28) was 27.7 µM (inactive), the GI50 (OVCAR-3) was 19.1 µM (inactive) and the GI50 (OVCAR-8) was 20.7 µM (inactive). The GI50 (CAKI-1) was 22.3 µM (inactive), the GI50 (SK-MEL-2) was 23.5 µM (inactive) and the GI50 (DLD-1) was 26 µM (inactive). The GI50 (U-251) was 18.7 µM (inactive), the GI50 (HOP-18) was 19.1 µM (inactive) and the GI50 (UACC-257) was 24.4 µM (inactive). The GI50 (A549) was 35.8 µM (inactive), the GI50 (SN12C) was 23.7 µM (inactive) and the GI50 (HCC 2998) was 22.1 µM (inactive). For the same molecule, the GI50 (COLO 205) was 18.9 µM (inactive), the GI50 (KM-20L2) was 36 µM (inactive) and the GI50 (UO-31) was 20.1 µM (inactive). For the same molecule, the GI50 (SF-539) was 23 µM (inactive), the GI50 (786-0) was 21.1 µM (inactive) and the GI50 (SK-OV-3) was 24.7 µM (inactive). The GI50 (RPMI-8226) was 25.4 µM (inactive), the GI50 (Malme-3M) was 22 µM (inactive) and the GI50 (CCRF-CEM) was 25.4 µM (inactive). The GI50 (OVCAR-4) was 30.5 µM (inactive), the GI50 (RXF 631) was 22.7 µM (inactive) and the GI50 (SW-620) was 27.6 µM (inactive). The GI50 (M19-MEL) was 25.2 µM (inactive), the GI50 (SNB-75) was 27 µM (inactive) and the GI50 (OVCAR-5) was 25 µM (inactive). The GI50 (HOP-92) was 20.5 µM (inactive) and the GI50 (K562) was 20 µM (inactive).

For `CCCCCCCCCCCCCc1nnn[nH]1`, the GI50 (HOP-62) was 18.2 µM (inactive), the GI50 (LXFL 529) was 17.3 µM (inactive) and the GI50 (LOX IMVI) was 18.4 µM (inactive). The GI50 (NCI-H226) was 22.2 µM (inactive), the GI50 (SK-MEL-5) was 17.7 µM (inactive) and the GI50 (EKVX) was 23.4 µM (inactive). For the same molecule, the GI50 (SF-268) was 19.6 µM (inactive), the GI50 (NCI-H23) was 24.4 µM (inactive) and the GI50 (TK-10) was 20.6 µM (inactive). For the same molecule, the GI50 (NCI-H522) was 21.8 µM (inactive), the GI50 (ACHN) was 19.1 µM (inactive) and the GI50 (SNB-19) was 18.7 µM (inactive). For the same molecule, the GI50 (HCT-116) was 17.9 µM (inactive), the GI50 (SNB-78) was 21.4 µM (inactive) and the GI50 (HL-60) was 18.1 µM (inactive). For the same molecule, the GI50 (RXF 393) was 27.5 µM (inactive), the GI50 (HT-29) was 18 µM (inactive) and the GI50 (A498) was 17 µM (inactive). For the same molecule, the GI50 (NCI-H460) was 20.6 µM (inactive), the GI50 (IGROV-1) was 21.2 µM (inactive) and the GI50 (KM12) was 18.3 µM (inactive). The GI50 (M14) was 17.5 µM (inactive), the GI50 (HCT-15) was 18.3 µM and the GI50 (SF-295) was 19.2 µM (inactive). The GI50 (UACC-62) was 18 µM (inactive), the GI50 (SK-MEL-28) was 17.8 µM (inactive) and the GI50 (OVCAR-3) was 18.3 µM (inactive). For the same molecule, the GI50 (OVCAR-8) was 29.9 µM (inactive), the GI50 (SK-MEL-2) was 18.2 µM (inactive) and the GI50 (DLD-1) was 17.1 µM (inactive). For the same molecule, the GI50 (U-251) was 18.2 µM (inactive), the GI50 (HOP-18) was 15 µM (inactive) and the GI50 (UACC-257) was 18.7 µM (inactive). For the same molecule, the GI50 (A549) was 20 µM (inactive), the GI50 (SN12C) was 18.8 µM (inactive) and the GI50 (HCC 2998) was 18.6 µM (inactive). For the same molecule, the GI50 (COLO 205) was 19.4 µM (inactive), the GI50 (KM-20L2) was 20.2 µM (inactive) and the GI50 (UO-31) was 16 µM (inactive). For the same molecule, the GI50 (SF-539) was 18.2 µM (inactive), the GI50 (786-0) was 17.3 µM (inactive) and the GI50 (SK-OV-3) was 24.7 µM (inactive). The GI50 (RPMI-8226) was 22.4 µM (inactive), the GI50 (Malme-3M) was 18.1 µM (inactive) and the GI50 (DMS-114) was 18.5 µM (inactive). For the same molecule, the GI50 (CCRF-CEM) was 18.8 µM (inactive), the GI50 (OVCAR-4) was 18.3 µM (inactive) and the GI50 (RXF 631) was 15.4 µM (inactive). The GI50 (SW-620) was 20 µM (inactive), the GI50 (M19-MEL) was 19.7 µM (inactive) and the GI50 (SNB-75) was 18.3 µM (inactive). For the same molecule, the GI50 (OVCAR-5) was 18.5 µM (inactive) and the GI50 (HOP-92) was 15.6 µM (inactive).

From ChEMBL document CHEMBL1201862, “PubChem BioAssay data set” (2004)
